Reference: patent US5572996A, “In vivo pharmacokinetics of photosensitive drugs and method” (PDT Systems, Inc., priority 1996, dated 1996)
Like-named read-outs stand apart in the source and are kept apart here.

Tests used:
[1] = design: species or system Spraig Dawley Rats; conditions: rat, in vivo
Description: (§1) Twenty-four hours prior to measurement the animals were injected either with a control solution, (carrier vehicle), or various concentrations of the exogenous chromophore, tin ethyl etiopurpurin, (SnET2). SnET2 is a synthetic chlorophyll analogue used in photodynamic light therapy (PDT) that has a relatively weak fluorescence emission, (Quantum yield of 0.01), an emission peak at 670 nm, and a maximum absorption/excitation at 440 nm. At measurement time the animals where anesthetized and then surgically opened to allow measurement of the fluorescence in various tissues. The measurement system used had the following characteristics:
(a) A single fiber was used to deliver excitation light;
(b) Excitation light was derived from a HeCd laser at 442 nm, […] total power delivered to the tissue;
(c) The excitation light was delivered to the target tissue by means of a fiber optic. Fluorescent light emitted by both exogenous and endogenous chromophores in the target tissue was conducted back to the measuring instrument by means of a bundle of smaller optical fibers surrounding the fiber delivering excitation light to the target tissue. Some of these fiber where directed to one PMT (photomultiplier tube) detector filtered for a 570 nm endogenous autofluorescence while the others (12 fibers) were coupled to a PMT filtered at 670 nm for detecting the SnET2 emission;
(d) Autoranging of the gains of the PMTs over five decades;
(e) A display of the 570 (Autofluorescence), 670 (SnET2),signals and the ratio of the two;
(f) An internal reference standard for setting the gain of each PMT prior to each use;
(g) Computer data storage.
The system operates by a foot paddle or a panel button. Activating either one causes the 23 system to take a reading in 1.6 seconds and store it in the display and computer memory. Prior to each use the illuminating probe excitation output is set to 1 mw but this is not necessary due to the ratioing concept.
(§2) A small correction can be made for the endogenous autofluorescence by subtracting the control values from the drug containing tissue to give a NET RATIO. This method permits compensation for background tissue difference while permitting accurate and sensitive measurement of the exogenous chromophore presence in the tissue. Chemical extraction of the SnET2 from the tissue allows correlation of the in-vivo drug concentration to the Ratio signal as shown in Table 3 below. Such a correlation would not be accurate or easily done with out using the Ratio concept.

[2] = test system: skin cancers; assay: Photodynamic therapeutic response to red light in a human subject; format: in vivo; conditions: 0.4 mg/kg SnET2, human subject
Description: (§3) FIG. 1 presents data from an actual human subject injected with SnET2 for the treatment of a number of skin cancers. A number of normal i.e. control sites, and tumor sites were measured prior to the SnET2 injection, (0.4 mg/kg) and at various times post injection. […] In summary, it is clear from the data provided that the method employing the measurement of the intensity of the exogenous chromophore fluorescence to the autofluorescence of a tissue provide a more accurate means for measuring the pharmacokinetics of an exogenous fluorescing chromophore in vivo. The finding is novel and to the inventor's knowledge has not been taught or acknowledged by others either in a patent or publication. Though the method was discovered and developed during the performance of work associated with photodynamic diagnosis and therapy, the utilization of the present method extends to other types of phototherapy. Any application requiring the in vivo monitoring of rate of change of concentration of a fluorescence chromophore in a tissue could use the present method. For example the in vivo pharmacokinetics of fluorescence labeled monoclonal antibodies for diagnostic or therapeutic application, and certain fluorescent antibiotics such as tetracycline, detection of highly proliferating atherosclerosis, among others. […]

[3] = design: species or system Spraig Dawley Rats; conditions: rat, in vivo, 24 h
Description: as §1, §2

[4] = test system: skin cancers; assay: In vivo fluorescence kinetics in a human subject with skin cancers (tumor and normal sites); conditions: 0.4 mg/kg SnET2, human subject
Description: as §3

## CCOC(=O)C1=Cc2c3nc(cc4nc(cc5[n-]c(cc6[n-]c2c(C)c6CC)c(C)c5CC)C(C)=C4CC)[C@@H](C)[C@]13CC.[Cl-].[Cl-].[Sn] (racemic) [SnET2, tin ethyl etiopurpurin]
[1]; 1 mg/kg
  Net Ratio, kidney: 1.73 ± 0.42
  Net Ratio, liver: 17.8 ± 2.15
[1]; 2 mg/kg
  Net Ratio, kidney: 2.48 ± 0.14
  Net Ratio, liver: 30.0 ± 5.5
[1]; 4 mg/kg
  Net Ratio, kidney: 4.24 ± 0.90
  Net Ratio, liver: 50.1 ± 12.8
[2]
  response to red light exposure: gave a response correlating to the magnitude of the ratio signal
[3]; 1 mg/kg
  Extraction (tissue drug concentration), kidney: 1.87 ± 0.14 µg/g
  Extraction (tissue drug concentration), liver: 13.2 ± 0.91 µg/g
[3]; 2 mg/kg
  Extraction (tissue drug concentration), kidney: 3.56 ± 0.11 µg/g
  Extraction (tissue drug concentration), liver: 27.2 ± 2.5 µg/g
[3]; 4 mg/kg
  Extraction (tissue drug concentration), kidney: 5.49 ± 0.54 µg/g
  Extraction (tissue drug concentration), liver: 59.2 ± 8.9 µg/g
[4]
  drug uptake in tumors versus control/normal sites (Net Ratio, FIG. 3): the tumors take up the drug significantly more than the control/normal sites
[4]; unratioed signal
  SnET2 fluorescence at 670 nm with site and time (FIG. 2): greatly varies with site and time
